Results from patent EP3822285A1, “VARIANT NISIN PEPTIDES” (University College Cork-National University of Ireland, Cork, priority 2019, dated 2021).
Converted amounts (≈) assume the structure as drawn. “And” between values parts separate entries of the source, which are not always exact repeats. Equal values may be shown once. Marks after values point to notes of the source that are not given here.

Tests used:
Type in all cases: cell-based
Thermus scotoductus SE-1 = assay: Agar diffusion assay with cell free supernatant of producing strains; conditions: zone diameter relative to Nisin A wild type (100)
Experimental: (§1) Agar diffusion assays were carried out in triplicate using nisin producing and indicator (T. thermophilus HB27 and T. scotoductus Se-1) strains. Both the producer and indicator strains were cultured as per conditions described above. One ml of overnight culture of indicators were added to 50ml of molten Castenholz agar, briefly swirled and poured. Wells were made using sterile glass pipette. To generate cell free supernatant from nisin producing strains, 10 mls of overnight cultures of the strains were centrifuged at 950g for 20 mins. The cell free supernatant was transferred to a sterile tube. 50 µl of cell free supernatant was added to wells described above. Plates were incubated at 55°C for 3 days and the zone of clearance measured.
(§2) The cell free supernatant of nisin A and nisin variant producing L. lactis was used to determine the bioactivity of these lantibiotics against T. thermophilus HB27 and T. scotoductus SE-1 using agar diffusion assays, with the zone of clearance representing the bioactivity of the producing strain (i.e., representing a combination of the amount of the peptide produced and the specific activity of that peptide). […] Among the variants tested were those with altered N-terminal domains. The N-terminal domain of nisin is important for binding with the pyrophosphate moiety of lipid II to mediate pore formation in the cell membrane. Lysine (K) at position 12, which serves as a small flexible region between ring B and C, and is one of among the 5 positively charged residues (K12, K22, K34, H27, […]) of nisin A that contributes to its cationic nature and its attraction to the cell envelope.

[1] = system: Thermus thermophilus HB27; assay: as above; conditions: zone diameter relative to Nisin A wild type (100)
Experimental: as §1, §2

T. aquaticus = assay: Minimum inhibitory concentration assay (Thermus); conditions: for MIC: pure peptide, mean of triplicate assays
Experimental: (§3) Minimum inhibitory concentration (MIC) determinations for gram negative Thermus strains were carried out in triplicate in round bottom microtitre plates (Corning). 96 well microtitre plates were pre-treated with bovine serum albumin (BSA) prior to addition of the peptides. Briefly, to each well of the microtire plates 200 µl of d.H2O (filtered with 0.2 µm filter) containing 1% (w/w) BSA was added and incubated at 37°C for 30 mins. The wells were washed with 200 µl of IX phosphate buffered saline (PBS) for 2 times after removing 1% BSA d.H2O. 100 µl of growth media, i.e., Castenholz, was added to each well. […] Target strains were grown overnight as per conditions mention above, 0.5 ml of overnight was subcultured in to 10 mls of fresh Castenholz medium and allowed to grow to an OD600 of ∼0.5. 20µl of this subculture was added to 980µl of media, 150µl of this dilution added to 14.85 ml of growth media. 100µl of this dilution added to each well resulting in a final inoculum of ∼10^5 cfu/ml in 200µl. The plates were incubated at 55° C for 3 days and the MIC was determined as the lowest concentration at which no growth was visible.
(§4) The bioactivity of cell-free supernatant can be influenced by altered diffusion rates, solubility, production or specific activity. To determine to what extent, if any, the bioactivity noted above is due to increased specific activity, nisin A (control) and the derivatives were purified and their molecular weights confirmed by MALDI TOF mass spectrometry (Table: 6) (Figure: 4). These peptides were used to perform minimum inhibitory concentration assays against six Thermus strains, i.e., T. thermophilus HB27, T. scotoductus SE-1, T. rehai, T. oshimai, T. aquaticus and T. brockianus.

T. brockianus = assay: Minimum inhibitory concentration assay (Thermus); conditions: pure peptide, mean of triplicate assays
Experimental: as §3, §4

T. oshimai = assay: Minimum inhibitory concentration assay (Thermus); conditions: for MIC: pure peptide, mean of triplicate assays
Experimental: as §3, §4

T. rehai = assay: Minimum inhibitory concentration assay (Thermus); conditions: for MIC: pure peptide, mean of triplicate assays
Experimental: as §3, §4

T. scotoductus SE-1 = assay: Minimum inhibitory concentration assay (Thermus); conditions: pure peptide, mean of triplicate assays
Experimental: as §3, §4

T. thermophilus HB27 = assay: Minimum inhibitory concentration assay (Thermus); conditions: for MIC: pure peptide, mean of triplicate assays
Experimental: as §3, §4

SMILES	% of wild type (Thermus scotoductus SE-1)	% difference [1]	MIC (T. aquaticus)	MIC (T. brockianus) [µM]	MIC (T. oshimai)	MIC (T. rehai)	MIC (T. scotoductus SE-1) [µM]	fold better activity than nisin A (T. thermophilus HB27)	MIC (T. thermophilus HB27)	fold better activity than nisin A (T. aquaticus) [fold]	fold better activity than nisin A (T. oshimai) [fold]	fold better activity than nisin A (T. rehai) [fold]
C=C(NC(=O)[C@@H](NC(=O)[C@H](Cc1c[nH]cn1)NC(=O)[C@@H](NC(=O)[C@H](CO)NC(=O)[C@@H]1CS[C@@H](C)[C@H]2NC(=O)[C@H](C)NC(=O)[C@H](NC(=O)[C@H](CCCCN)NC(=O)[C@H](Cc3ccc(O)cc3)NC(=O)[C@H](CC(N)=O)NC(=O)[C@@H]3CS[C@@H](C)[C@@H](NC(=O)[C@H](CCCCN)NC(=O)[C@@H]4CS[C@@H](C)[C@@H](NC(=O)[C@@H]5CSC[C@@H](NC(=O)/C(=C/C)NC(=O)[C@@H](N)[C@@H](C)CC)C(=O)N[C@@H]([C@@H](C)CC)C(=O)NC(=C)C(=O)N[C@@H](CC(C)C)C(=O)N5)C(=O)N5CCC[C@H]5C(=O)NCC(=O)N4)C(=O)NCC(=O)N[C@@H](C)C(=O)N[C@@H](CC(C)C)C(=O)N[C@@H](CCSC)C(=O)NCC(=O)N3)[C@H](C)SC[C@H](NC2=O)C(=O)N[C@@H](Cc2c[nH]cn2)C(=O)N1)[C@@H](C)CC)C(C)C)C(=O)N[C@@H](CCCCN)C(=O)O [M21Y]	115%	115%	6.6 µg/L and 0.00195 µM	0.0312 (≈ 0.106 µg/mL)	13.2 µg/L and 0.0039 µM	13.2 µg/L and 0.0039 µM	0.0625 (≈ 0.212 µg/mL)	two-fold	13.2 µg/L and 0.0039 µM	–	–	–
C=C(NC(=O)[C@@H](NC(=O)[C@H](Cc1c[nH]cn1)NC(=O)[C@@H](NC(=O)[C@H](CO)NC(=O)[C@@H]1CS[C@@H](C)[C@H]2NC(=O)[C@H](C)NC(=O)[C@H](NC(=O)[C@H](CCCCN)NC(=O)[C@H](CCC(N)=O)NC(=O)[C@H](CC(N)=O)NC(=O)[C@@H]3CS[C@@H](C)[C@@H](NC(=O)[C@H](CCCCN)NC(=O)[C@@H]4CS[C@@H](C)[C@@H](NC(=O)[C@@H]5CSC[C@@H](NC(=O)/C(=C/C)NC(=O)[C@@H](N)[C@@H](C)CC)C(=O)N[C@@H]([C@@H](C)CC)C(=O)NC(=C)C(=O)N[C@@H](CC(C)C)C(=O)N5)C(=O)N5CCC[C@H]5C(=O)NCC(=O)N4)C(=O)NCC(=O)N[C@@H](C)C(=O)N[C@@H](CC(C)C)C(=O)N[C@@H](CCSC)C(=O)NCC(=O)N3)[C@H](C)SC[C@H](NC2=O)C(=O)N[C@@H](Cc2c[nH]cn2)C(=O)N1)[C@@H](C)CC)C(C)C)C(=O)N[C@@H](CCCCN)C(=O)O [M21Q]	124* (0.05) %	123%	26.1 µg/L and 0.0078 µM	0.0156 (≈ 0.0523 µg/mL)	6.5 µg/L and 0.00195 µM	13 µg/L and 0.0039 µM	0.0625 (≈ 0.209 µg/mL)	–	0.0039 µM (≈ 0.0131 µg/mL)	–	–	–
C=C(NC(=O)[C@@H](NC(=O)[C@H](Cc1c[nH]cn1)NC(=O)[C@@H](NC(=O)[C@H](CO)NC(=O)[C@@H]1CS[C@@H](C)[C@H]2NC(=O)[C@H](C)NC(=O)[C@H](NC(=O)[C@H](CCCCN)NC(=O)[C@H](Cc3ccccc3)NC(=O)[C@H](CC(N)=O)NC(=O)[C@@H]3CS[C@@H](C)[C@@H](NC(=O)[C@H](CCCCN)NC(=O)[C@@H]4CS[C@@H](C)[C@@H](NC(=O)[C@@H]5CSC[C@@H](NC(=O)/C(=C/C)NC(=O)[C@@H](N)[C@@H](C)CC)C(=O)N[C@@H]([C@@H](C)CC)C(=O)NC(=C)C(=O)N[C@@H](CC(C)C)C(=O)N5)C(=O)N5CCC[C@H]5C(=O)NCC(=O)N4)C(=O)NCC(=O)N[C@@H](C)C(=O)N[C@@H](CC(C)C)C(=O)N[C@@H](CCSC)C(=O)NCC(=O)N3)[C@H](C)SC[C@H](NC2=O)C(=O)N[C@@H](Cc2c[nH]cn2)C(=O)N1)[C@@H](C)CC)C(C)C)C(=O)N[C@@H](CCCCN)C(=O)O [M21F]	106%	125%	0.0039 µM (≈ 0.0131 µg/mL)	0.0078 (≈ 0.0263 µg/mL)	0.00195 µM (≈ 0.00657 µg/mL)	0.000975 µM (≈ 0.00329 µg/mL)	0.0312 (≈ 0.105 µg/mL)	–	0.0039 µM (≈ 0.0131 µg/mL)	–	–	–
C=C(NC(=O)[C@@H](NC(=O)[C@H](Cc1c[nH]cn1)NC(=O)[C@@H](NC(=O)[C@H](CO)NC(=O)[C@@H]1CS[C@@H](C)[C@H]2NC(=O)[C@H](C)NC(=O)[C@H](NC(=O)[C@H](CCCCN)NC(=O)[C@H](CCSC)NC(=O)[C@H](CC(N)=O)NC(=O)[C@@H]3CS[C@@H](C)[C@@H](NC(=O)[C@H](CCCCN)NC(=O)[C@@H]4CS[C@@H](C)[C@@H](NC(=O)[C@@H]5CSC[C@@H](NC(=O)/C(=C/C)NC(=O)[C@@H](N)[C@@H](C)CC)C(=O)N[C@@H]([C@@H](C)CC)C(=O)NC(=C)C(=O)N[C@@H](CC(C)C)C(=O)N5)C(=O)N5CCC[C@H]5C(=O)NCC(=O)N4)C(=O)NCC(=O)N[C@@H](C)C(=O)N[C@@H](CC(C)C)C(=O)N[C@@H](CCSC)C(=O)NCC(=O)N3)[C@H](C)SC[C@H](NC2=O)C(=O)N[C@@H](CCC(N)=O)C(=O)N1)[C@@H](C)CC)C(C)C)C(=O)N[C@@H](CCCCN)C(=O)O [H27Q]	115%	136* (0.031) %	3.26 µg/L and 0.000975 µM	0.0156 (≈ 0.0522 µg/mL)	3.2 µg/L and 0.000975 µM	3.2 µg/L and 0.000975 µM	0.0625 (≈ 0.209 µg/mL)	8 fold	3.2 µg/L and 0.000975 µM	14	8	8
